Source: US20260306640A1, “TECHNOLOGIES TARGETING CELL STATES” (Auron Therapeutics, Inc., priority 2023, published 2026)
Where two headings read alike, the source gives them in different places.

How the values were obtained:
[1] = test system: MOLM-13 cells; experiment: Cell growth inhibition (cell count, 8 days), MOLM-13 cells; assay type: cell-based; conditions: Homo sapiens, 192 h, cell count after 8 days relative to DMSO control, FIG. 2 (B)
Experimental: FIG. 2. Provided compounds can provide various activities. (A): Provided technologies can reduce KAT2A and KAT2B levels and histone acetylation levels. […] Cell count data after 8 days of treatment with compound 22 relative to DMSO control are presented as examples to confirm inhibition. […] (C): Provided technologies can modulate cell states and induce differentiation. […] EC50=0.3 nM.

[2] = test system: histone acetylation; experiment: Western blot of histone acetylation in NEPC primary patient organoid, 72 hours; assay type: cell-based; conditions: FIG. 3 (D)
Experimental: (§1) FIG. 3. Provided compounds can provide various activities. (A): Provided technologies can reduce KAT2A and KAT2B levels and histone acetylation levels. […] Cell viability (Cell Titer Glo) data relative to DMSO control after 7 days of treatment with compound 22 are presented as examples to confirm inhibition. GI50=5 nM. (C): Provided technologies can modulate cell states and induce differentiation. […] (D): Provided technologies can reduce KAT2A and KAT2B levels and histone acetylation levels including in neuroendocrine prostate cancer primary patient organoid. […] Concentrations are nM. […] Cell viability data relative to DMSO control after 21 days of treatment with compound 22 are presented as examples to confirm inhibition. GI50=3 nM. (F): Provided technologies can modulate cell states and induce differentiation.

[3] = test system: NCI-H1048 cells; experiment: Cell growth inhibition, SCLC cell line NCI-H1048 (cell count, day 11); assay type: cell-based, human; conditions: for GI50: Homo sapiens
From the text: Among other things, provided technologies are useful for treating various diseases, disorders, or conditions. For example, in some embodiments, provided technologies are useful for treating cancer as confirmed in the present Example. […] In some embodiments, provided technologies can inhibit cell proliferation. In some embodiments, the present disclosure provides technologies for assessing various technologies, e.g., compounds, compositions, or methods. Among other things, the present Example provides technologies, e.g., cell growth inhibition assay, for assessing various technologies. […] In some embodiments, the following cell growth inhibition methods are utilized to assess provided technologies.
SCLC: SCLC cell lines NCI-H1048 and NCI-H1876 were cultured in DMEM F12 media with 5% FBS, 1% Penicillin/Streptomycin and HITES supplement (Hydrocortisone, Insulin, Transferrin, Estradiol and Sodium Selenite). NCI-H1048 cells were plated at 10,000 cells/well of a 24-well plate and NCI-H1876 cells were plated at 20,000 cells/well of a 96-well plate. Compound and media were replenished every two days out to day 11 and 10 respectively. Cells were then trypsinized and counted using either hemocytometer or an automated Countess cell counter.
In some assessments, for cell growth inhibition, cells, e.g., MOLM13, NCI-H1048, and LASCPC-01 cells, were counted using a hemocytometer or automated cell counting in triplicates. In some assessments, proliferation in NEPC organoids as measured with Cell Titer Glo reagent (Promega). Growth inhibition was determined relative to vehicle control.

[4] = molecular target: T1, KAT2A (Homo sapiens, UniProt Q92830); experiment: Western blot of KAT2A in NCI-H1048 tumors, 168 hours post last dose; assay type: in vivo; design: degrader, Western blot; conditions: FIG. 1 (F)
T1 sequence (Q92830 whole entry): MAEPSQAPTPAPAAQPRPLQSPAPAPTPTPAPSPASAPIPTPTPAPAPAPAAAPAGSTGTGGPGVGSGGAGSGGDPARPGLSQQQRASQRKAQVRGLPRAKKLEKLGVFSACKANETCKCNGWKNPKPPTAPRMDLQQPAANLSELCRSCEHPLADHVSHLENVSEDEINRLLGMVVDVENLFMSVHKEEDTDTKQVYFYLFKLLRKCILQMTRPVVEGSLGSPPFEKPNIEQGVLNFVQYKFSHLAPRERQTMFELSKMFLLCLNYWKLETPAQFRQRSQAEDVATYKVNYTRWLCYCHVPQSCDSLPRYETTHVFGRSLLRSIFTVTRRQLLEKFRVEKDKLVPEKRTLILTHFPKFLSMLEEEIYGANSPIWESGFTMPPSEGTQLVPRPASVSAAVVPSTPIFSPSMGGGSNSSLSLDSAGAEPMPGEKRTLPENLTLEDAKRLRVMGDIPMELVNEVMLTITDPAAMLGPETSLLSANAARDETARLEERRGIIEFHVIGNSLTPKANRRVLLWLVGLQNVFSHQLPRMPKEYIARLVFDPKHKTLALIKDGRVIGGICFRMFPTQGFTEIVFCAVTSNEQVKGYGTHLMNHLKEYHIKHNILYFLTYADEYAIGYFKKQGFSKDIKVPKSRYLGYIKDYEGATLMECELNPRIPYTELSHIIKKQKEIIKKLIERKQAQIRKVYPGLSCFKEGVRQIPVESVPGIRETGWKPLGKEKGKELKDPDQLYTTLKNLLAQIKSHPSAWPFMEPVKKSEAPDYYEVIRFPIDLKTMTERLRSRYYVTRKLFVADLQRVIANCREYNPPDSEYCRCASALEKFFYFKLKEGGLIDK
Experimental: FIG. 1. Provided compounds can provide various activities including inhibiting tumor growth in vivo. (A): Provided compounds can inhibit tumor growth in vivo. Nude Balb/c mice were inoculated with NCI-H1048 cells in Matrigel. Tumors were allowed to grow up to about 200 mm^3 and mice were then randomized into two groups. Mice were dosed intraperitoneally (i.p.) once per week with vehicle or 30 mg/kg compound 22. Tumor size was measured every three to four days and mice were sacrificed once vehicle tumors reached 2000 mm^3. Error bar is SEM. Dosing started at day 17 post tumor inoculation. (B): Provided technologies can reduce KAT2A and KAT2B levels and histone acetylation levels. […] Vehicle is DMSO. […] Cell count data relative to DMSO control after 8 days of treatment with compound 22 are presented as examples to confirm inhibition. GI50=6 nM. (D): Provided technologies can inhibit tumor growth in vivo. Nude balb/c mice inoculated with H1048 tumors were dosed intraperitoneally once per week (qw i.p.) with vehicle (HbCD) or compound 22. Average tumor volumes+/−SEM from 6 mice are represented. […] See also (A). […] Certain body weights relative to starting weight are presented as examples to confirm tolerability and safety. (F): Provided technologies can reduce KAT2A and KAT2B levels and histone acetylation levels in tumor in vivo. […]

[5] = molecular target: KAT2B (Homo sapiens, UniProt Q92831); experiment: Western blot of KAT2B level in neuroendocrine prostate cancer LASCPC-01 cells, 24 hours; assay type: cell-based; design: degrader, Western blot; conditions: FIG. 3 (A)
Sequence of KAT2B (Q92831 whole entry): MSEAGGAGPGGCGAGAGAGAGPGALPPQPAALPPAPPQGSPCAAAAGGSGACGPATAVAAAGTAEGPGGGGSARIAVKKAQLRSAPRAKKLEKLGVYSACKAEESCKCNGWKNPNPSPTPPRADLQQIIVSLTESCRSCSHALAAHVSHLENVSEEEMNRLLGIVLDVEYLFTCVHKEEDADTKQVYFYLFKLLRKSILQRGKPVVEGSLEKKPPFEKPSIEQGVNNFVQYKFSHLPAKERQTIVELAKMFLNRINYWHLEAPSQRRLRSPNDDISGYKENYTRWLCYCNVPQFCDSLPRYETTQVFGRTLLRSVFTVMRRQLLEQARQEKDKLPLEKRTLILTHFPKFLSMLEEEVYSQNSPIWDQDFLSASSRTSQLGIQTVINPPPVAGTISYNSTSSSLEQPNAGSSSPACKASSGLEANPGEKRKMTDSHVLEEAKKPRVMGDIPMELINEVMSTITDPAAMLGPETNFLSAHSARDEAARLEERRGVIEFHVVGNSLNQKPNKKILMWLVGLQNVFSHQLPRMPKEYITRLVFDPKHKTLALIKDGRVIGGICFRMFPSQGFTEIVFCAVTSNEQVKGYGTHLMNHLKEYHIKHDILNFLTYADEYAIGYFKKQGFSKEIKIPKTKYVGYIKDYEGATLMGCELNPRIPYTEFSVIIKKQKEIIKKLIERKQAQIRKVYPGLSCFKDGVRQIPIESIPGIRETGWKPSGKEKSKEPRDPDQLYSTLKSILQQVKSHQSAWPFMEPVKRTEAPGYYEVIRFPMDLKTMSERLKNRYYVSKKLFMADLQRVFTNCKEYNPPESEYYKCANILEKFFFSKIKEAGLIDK
Experimental: as §1

[6] = molecular target: T1, KAT2A; experiment: KAT2A degradation, Western Blot (Jess), NCI-H1048 cells; assay type: cell-based; design: degrader, Western blot (Jess)
Method in brief: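 DC50 came from protein loss relative to DMSO, measured by Jess capillary immunoblot of RIPA lysates with chemiluminescence read-out. Before lysis, NCI-H1048 cells in 5% FBS HITES medium were exposed to compound for 24 h at 37° C.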

`CN1C[C@H](Nc2cnn(C)c(=O)c2Br)C[C@H](c2ccc(C(=O)N3CCC(CN4CCN(c5ccc6c(c5)CN(C5CCC(=O)NC5=O)C6=O)CC4)CC3)cc2)C1` (stereo partly drawn) [Compound 22, 3-(5-(4-((1-(4-((3R,5R)-5-((5-bromo-1-methyl-6-oxo-1,6-dihydropyridazin-4-yl)amino)-1-methylpiperidin-3-yl)benzoyl)piperidin-4-yl)methyl)piperazin-1-yl)-1-oxoisoindolin-2-yl)piperidine-2,6-dione] was tested, and the GI50 [1] was 1.2 nM, the “reduction of histone acetylation level” value [2] was “confirmed such reductions” and the GI50 ([3]; 264 h, NCI-H1048, day 11, cell count, read-out: H1048 GI50) was 1 nM. The GI50 ([3]; NCI-H1048, comparison table with Ref-1, read-out: Growth GI50) was 1.5 nM, the “cell growth in vitro” value ([3]; NCI-H1048 cells, FIG. 1) was “inhibit cell growth in vitro and in vivo” and the “reduction of KAT2A in tumor” value [4] was “significant reduction”. For the same compound, the “reduction of KAT2B level” value [5] was “confirm such reduction”, the EC90 ([6]; 24 h, NCI-H1048, KAT2A, read-out: DC90 (the source's name)) was 0.29 nM and the DC50 ([6]; NCI-H1048, KAT2A, read-out: DC50) was 0.01 nM. For the same compound, the KAT2A levels ([6]; NCI-H1048 cells, FIG. 1) was “potently reduce KAT2A and KAT2B levels” and the DC50 ([6]; NCI-H1048 cells, KAT2A, 24 h, Western Blot, vs DMSO, read-out: KAT2A NCI-H1048 DC50) was < 1 nM.
